Blank lines part the entries; values can stand above or below the molecule they belong to.
Experiments:
[1] = target: T1, 5-hydroxytryptamine receptor 1A (Rattus norvegicus, UniProt P19327); assay: biochemical
T1 sequence (P19327 whole entry): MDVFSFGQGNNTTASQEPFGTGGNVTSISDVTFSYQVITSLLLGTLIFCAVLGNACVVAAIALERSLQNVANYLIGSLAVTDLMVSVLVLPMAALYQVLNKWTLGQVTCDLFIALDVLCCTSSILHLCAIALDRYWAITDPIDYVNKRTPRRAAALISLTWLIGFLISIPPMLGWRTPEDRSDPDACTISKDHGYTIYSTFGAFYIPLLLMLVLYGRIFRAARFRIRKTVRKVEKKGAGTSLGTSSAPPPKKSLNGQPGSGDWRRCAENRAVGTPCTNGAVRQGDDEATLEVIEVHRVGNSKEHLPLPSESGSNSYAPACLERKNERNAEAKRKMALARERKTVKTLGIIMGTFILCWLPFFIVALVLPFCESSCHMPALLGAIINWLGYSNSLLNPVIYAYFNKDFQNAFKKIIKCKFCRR
Description: Inhibition of binding of [125I]8-OH-PIPAT ligand to 5-hydroxytryptamine 1A receptor of rat hippocampal homogenates

[2] = target: T2, 5-hydroxytryptamine receptor 1A (Rattus norvegicus) (UniProt P19327); type: tissue-based; conditions: Hippocampus
T2 sequence (whole entry): T1 sequence (P19327 whole entry)

[3] = target: T1, 5-hydroxytryptamine receptor 1A; type: tissue-based, Hippocampus
[4] = target: T1, 5-hydroxytryptamine receptor 1A; type: tissue-based, Hippocampus; remark: listed apart in the source

Ki [1]: 380 pM
Bmax (fM (mg of protein)-1) [2]: 310
Compound: CCCN(C/C=C/I)C1CCc2cccc(O)c2C1 (centres undefined)

Kd [3]: 300 pM
Compound: COc1ccccc1N1CCN(CCN(C(=O)c2ccc(I)cc2)c2ccccn2)CC1

Kd [4]: 400 pM
Compound: COc1ccccc1N1CCN(CCCCNC(=O)C23C[C@H]4C[C@@H](C2)C[C@@H](C3)C4)CC1

From ChEMBL document CHEMBL1127504, “Synthesis and evaluation of 4-(2'-methoxyphenyl)-1-[2'-[N-(2"-pyridinyl)-p- iodobenzamido]ethyl]piperazine (p-MPPI): a new iodinated 5-HT1A ligand” (J Med Chem, 1994)
